“Also recorded” adds a separate entry of the source. Like-named read-outs stand apart in the source and are kept apart here.
How the values were obtained:
[1] = biological target: T1, SUMO E1 (Homo sapiens (Human), UniProt Q9UBT2); assay: SUMO E1 inhibition, formation of the Ubc9-SUMO thioester (biochemical assay)
[2] = biological target: T1, SUMO E1; settings: in the presence of Mg2+; read-out: Kd of ATP binding to E1; cited from earlier work
[3] = system: RanGAP1 stable SUMOylation in U20S and DLD1 cells; assay: Stable SUMOylation, RanGAP1 and RanBP2 localization by immunohistochemistry; assay type: cell-based; settings: 18 hours
Experimental: Cells were treated with the compound at indicated concentration for 18 hours, and then localization of RanGAP1 and RanBP2 was detected by immunohistochemistry. Nuclei are stained with DAPI.

[4] = biological target: ubiquitin E1 (Homo sapiens (Human), UniProt P22314); settings: Ubc5-ubiquitin thioester vs Ubc9-SUMO thioester
ubiquitin E1, sequence (P22314 whole entry, looked up): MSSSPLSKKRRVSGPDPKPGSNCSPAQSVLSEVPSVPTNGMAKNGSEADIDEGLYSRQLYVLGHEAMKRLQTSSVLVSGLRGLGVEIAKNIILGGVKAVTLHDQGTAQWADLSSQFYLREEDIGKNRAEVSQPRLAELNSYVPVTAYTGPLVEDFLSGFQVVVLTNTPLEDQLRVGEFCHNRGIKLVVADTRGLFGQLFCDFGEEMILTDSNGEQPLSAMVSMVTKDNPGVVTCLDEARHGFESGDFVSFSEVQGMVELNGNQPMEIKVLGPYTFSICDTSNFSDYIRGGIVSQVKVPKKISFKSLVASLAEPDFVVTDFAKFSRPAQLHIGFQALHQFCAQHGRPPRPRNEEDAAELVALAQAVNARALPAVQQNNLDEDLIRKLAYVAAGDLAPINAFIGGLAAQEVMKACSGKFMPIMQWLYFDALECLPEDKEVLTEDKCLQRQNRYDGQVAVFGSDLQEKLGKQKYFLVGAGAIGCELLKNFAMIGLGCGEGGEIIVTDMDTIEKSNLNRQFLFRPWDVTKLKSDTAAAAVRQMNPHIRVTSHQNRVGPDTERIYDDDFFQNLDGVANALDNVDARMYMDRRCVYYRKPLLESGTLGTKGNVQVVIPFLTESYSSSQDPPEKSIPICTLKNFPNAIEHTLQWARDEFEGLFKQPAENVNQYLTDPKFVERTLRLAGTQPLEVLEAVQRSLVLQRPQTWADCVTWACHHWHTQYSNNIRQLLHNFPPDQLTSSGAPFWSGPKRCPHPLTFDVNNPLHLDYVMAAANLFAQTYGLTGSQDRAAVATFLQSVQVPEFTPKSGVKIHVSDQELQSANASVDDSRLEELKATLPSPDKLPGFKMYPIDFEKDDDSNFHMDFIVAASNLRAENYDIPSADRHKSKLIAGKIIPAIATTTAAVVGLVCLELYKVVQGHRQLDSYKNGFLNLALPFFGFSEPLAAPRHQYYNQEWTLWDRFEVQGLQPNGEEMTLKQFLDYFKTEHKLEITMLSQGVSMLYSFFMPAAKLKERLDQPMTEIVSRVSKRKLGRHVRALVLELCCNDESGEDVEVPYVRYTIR

[5] = system: MCF7, H1299, DLD1 and SJSA cancer cell lines; assay: Sensitization of cancer cell lines to irradiation, MTS cell survival assay; assay type: cell-based; settings: for sensitization of cancer cell lines to radiation: drug 4 hours, then 4 Gy
Experimental: The cells were treated with different doses of the drug for 4 hours, followed by irradiation with 4 Gy and incubation for an additional 68 hours. […] Cell survival was assessed by MTS assays
Quinoxaline 1 was added to cultures of various cancer cell lines for 4 hours, after which cells were irradiated at 4 Gy. Forty-eight hours after irradiation, cell viability was measured by MTS assay.

[6] = system: 53BP1; assay: 53BP1 colocalization with γH2AX at DSB sites in IR-treated cells; assay type: cell-based; settings: 20 μM, 18 hours, 1 Gy, 1 hour recovery
Description: (Green: γH2AX; Red: 53BP1).

[7] = biological target: T1, SUMO E1; assay: NMR saturation transfer difference (STD) competition with ATP; assay type: binding
Description: In (A), ATP spectra with assignments indicated, and the percentage of STD effects indicated for each resonance. Red spectrum indicates 2 s saturation at −30 ppm (control), blue spectrum (underneath red) indicates 2 s saturation of protein signals at 0 ppm, and green spectrum (bottom) indicates the difference between the red and blue spectra. […] […] The corresponding STD spectra are color-coded as indicated to the right. A region of the spectrum covering H2 of ATP and H12 and H13 from the compound are shown, with the H2 signal of ATP expanded in the inset. […] The titration data was used to estimate Kd of the compound.

[8] = system: Fa2N-4 cells; assay: Toxicity on immortalized human hepatocytes, cellular ATP viability assay; assay type: cell-based; settings: Fa2N-4, concentrations up to 50 μM, 24 hrs
Experimental: FIG. 9 illustrates the toxicity of the SUMO inhibitor on normal human liver cells. Immortalized human hepatocytes, Fa2N-4 cells (XenoTech) were seeded at ˜50-60K cells/well, and incubated with a range of concentrations (0.01-50 μM) 1, in duplicate, for 24 hrs at 37° C., 5% CO2. Cell viability was determined by cellular ATP levels using the Luminescence ATP Detection Assay System (Tecan).

[9] = system: HIV; assay type: cell-based
[10] = system: global SUMOylation in HT29, HCT116 and U373 cells; assay: Global SUMOylation in cancer cell lines, Western blot with anti-SUMO2/3 antibodies; assay type: cell-based; settings: 18 hours; for inhibition of SUMOylation in cells: various concentrations, HCT116, HT29, U373
Experimental: Western blots (probed with anti-SUMO2/3 antibodies) of cell lysates from HT29, HCT116 and U373 cells treated with compound 1. SUMO2/3 modifies many proteins as poly-SUMO chains, and is detected as high molecular weight smears. 16c indicates the control compound 2 used at concentrations of 16 μM.
Quinoxaline 1 or 2 was added to cell culture media at various concentrations for 18 hours, after which SUMOylated proteins were detected using anti-SUMO antibodies. […] Thus, quinoxaline 1 has potent and specific inhibitory effects in various cancer cell lines.

[11] = system: BRCA1; assay: BRCA1 colocalization with γH2AX in IR-treated cells; assay type: cell-based; settings: 20 μM, 18 hours, 1 Gy
Description: (Green: BRCA1; Red: γH2AX).

[12] = in vitro, read-out: IC50 for SUMO E1

T1 sequence (Q9UBT2 whole entry): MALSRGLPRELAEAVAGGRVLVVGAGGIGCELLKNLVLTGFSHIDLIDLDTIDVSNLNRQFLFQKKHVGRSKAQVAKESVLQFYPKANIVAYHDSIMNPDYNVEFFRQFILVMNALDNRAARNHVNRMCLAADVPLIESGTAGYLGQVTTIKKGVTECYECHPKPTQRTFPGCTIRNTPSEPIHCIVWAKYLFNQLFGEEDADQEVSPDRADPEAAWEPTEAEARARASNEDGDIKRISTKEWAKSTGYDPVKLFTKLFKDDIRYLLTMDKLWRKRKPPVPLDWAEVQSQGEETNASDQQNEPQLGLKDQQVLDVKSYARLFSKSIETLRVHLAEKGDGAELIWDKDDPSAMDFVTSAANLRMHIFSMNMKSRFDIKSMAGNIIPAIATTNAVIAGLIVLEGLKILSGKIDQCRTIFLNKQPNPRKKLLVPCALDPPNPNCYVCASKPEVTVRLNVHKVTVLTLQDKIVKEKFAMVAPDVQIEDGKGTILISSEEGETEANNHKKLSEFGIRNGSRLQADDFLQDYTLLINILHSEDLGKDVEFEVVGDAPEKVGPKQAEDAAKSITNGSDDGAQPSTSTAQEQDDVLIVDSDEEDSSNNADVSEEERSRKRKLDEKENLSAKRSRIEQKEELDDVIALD
T1 sequence (Q9UBE0 whole entry partner): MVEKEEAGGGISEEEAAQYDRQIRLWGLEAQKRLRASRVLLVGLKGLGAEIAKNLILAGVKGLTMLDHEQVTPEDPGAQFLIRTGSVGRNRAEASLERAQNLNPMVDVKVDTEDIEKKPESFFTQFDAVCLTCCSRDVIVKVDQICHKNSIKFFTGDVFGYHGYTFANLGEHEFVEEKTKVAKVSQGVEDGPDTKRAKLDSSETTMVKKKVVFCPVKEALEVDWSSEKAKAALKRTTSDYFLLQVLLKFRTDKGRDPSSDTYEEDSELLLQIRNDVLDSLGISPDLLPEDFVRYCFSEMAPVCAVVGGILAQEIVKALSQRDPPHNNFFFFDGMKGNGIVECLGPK

CCCCn1c(N)c(S(=O)(=O)c2ccccc2)c2nc3ccccc3nc21 [Tricyclic Compound 6]
IC50 [1, 12]: 64 µM

CCCCn1c(NC(=O)c2ccccc2Cl)c(C#N)c2nc3ccccc3nc21 [Tricyclic Compound 2]
IC50 [1, 12]: 20 µM

CCCCn1c(NC(=O)c2ccccc2)c(S(=O)(=O)c2ccccc2)c2nc3ccccc3nc21 [Tricyclic Compound 7]
IC50 [1, 12]: 98 µM

C=CCn1c(NS(=O)(=O)c2ccccc2)c(S(=O)(=O)c2ccc(C)cc2)c2nc3ccccc3nc21 [Tricyclic Compound 12]
IC50 [1, 12]: 0.5 µM

N#Cc1c(NC(=O)c2ccccc2Cl)n(Cc2ccccc2)c2nc3ccccc3nc12 [Tricyclic Compound 5]
IC50 [1, 12]: 25 µM

CCCCn1c(NC(C)=O)c(C#N)c2nc3ccccc3nc21 [Tricyclic Compound 4]
IC50 [1, 12]: 8.3 µM

Nc1ncnc2c1ncn2[C@@H]1O[C@H](COP(=O)(O)OP(=O)(O)OP(=O)(O)O)[C@@H](O)[C@H]1O [ATP]
Kd [2]: ~200 nM

CCCCn1c(NC(=O)c2ccc(Cl)cc2)c(C#N)c2nc3cc(C)c(C)cc3nc21 [Tricyclic Compound 8]
IC50 [1, 12]: 4.5 µM

CCCCn1c(NS(=O)(=O)c2ccccc2)c(S(=O)(=O)c2ccc(C)cc2)c2nc3ccccc3nc21 [Tricyclic Compound 1]
effect on stable SUMOylation [3]: does not disrupt stable SUMOylation | IC50 for ubiquitin E1 relative to SUMO E1 (selectivity) [4]: > 100 fold | IC50 for ubiquitin E1 relative to SUMO E1 (selectivity) ([4]; listed as quinoxaline 1): more than 100 fold | IC50 ([1]; in vitro, listed as compound 1, read-out: IC50 for SUMO E1): ~0.5 µM | IC50 [1, 12]: 0.5 µM | toxicity in cancer cell lines [5]: induced some toxicity in selected cancer cell lines | sensitization of cancer cell lines to radiation ([5]; listed as MLS-0207587): significantly lower survival rate | sensitization of cancer cell lines to radiation ([5]; listed as Quinoxaline 1): significantly enhanced the sensitivity | 53BP1 colocalization with γH2AX ([6]; DLD1 cells): inhibits 53BP1 colocalization with γH2AX | 53BP1 colocalization with γH2AX ([6]; U20S cells): inhibits 53BP1 colocalization with γH2AX | competition with ATP binding to E1 [7]: strong competition with ATP binding | reduction in the STD of ATP ([7]; 30 μM inhibitor, 80 μM ATP, 2 μM E1, 0.4 mM Mg2+): more than 60% | Kd ([7]; estimated from competitive STD data, read-out: Kd (inhibitor-enzyme dissociation constant)): ~180 nM | competition with ATP binding to E1 ([7]; listed as quinoxaline 1): competed with the binding of ATP | toxicity to human hepatocytes [8]: did not cause significant toxicity | toxicity to human hepatocytes ([8]; listed as Quinoxaline 1): no toxicity was detected | inhibition of HIV infection [9]: inhibited HIV infection in a dose dependent manner; also recorded: inhibits HIV infection in a dose-dependent manner | inhibition at 16 µM ([10]; 16 μM): > 80% | inhibition of SUMOylation in cells [10]: inhibits global SUMOylation in a dose-dependent manner | inhibition of SUMOylation in cells ([10]; listed as Quinoxaline 1): inhibited SUMOylation in a dose-dependent manner | BRCA1 colocalization with γH2AX ([11]; DLD1 cells, 1 hour recovery): inhibits BRCA1 colocalization with γH2AX | BRCA1 colocalization with γH2AX ([11]; U20S cells, 1 hour): inhibits BRCA1 colocalization with γH2AX

CCCCn1c(NC(=O)c2ccccc2Cl)c(S(=O)(=O)c2ccccc2)c2nc3ccccc3nc21 [Tricyclic Compound 11]
IC50 [1, 12]: > 100 µM

CCCCn1c(NC(=O)c2ccccc2)c(C#N)c2nc3ccccc3nc21 [Tricyclic Compound 3]
IC50 [1, 12]: 3.6 µM

CCCCNC(=O)c1c(NC(=O)c2ccccc2Cl)n(Cc2ccccc2)c2nc3ccccc3nc12 [Tricyclic Compound 9]
IC50 [1, 12]: 1.1 µM

CCCCn1c(NC(=O)c2ccc(F)cc2)c(C#N)c2nc3ccccc3nc21 [Tricyclic Compound 13]
IC50 ([1]; -BSA, read-out: IC50(-BSA)): 0.76 µM

CCCCn1c(NC(=O)c2ccco2)c(C#N)c2nc3ccccc3nc21 [Tricyclic Compound 10]
IC50 [1, 12]: 5.7 µM

Reference: patent US9045483B2, “Inhibition of small ubiquitin-like modifier enzymes with substituted pyrrolo[2,3-b]quinoxalines” (City of Hope, priority 2010, dated 2015)
